This assay deals with Human recombinant Histone Deacetylase 8 (HDAC8) (Homo sapiens (Human), UniProt Q9BY41). As to the kind of experiment: HDAC8 Enzymatic Assay (HDAC-Glo I/II luminescence). In kind it is biochemical. Here is the method:
HDAC-Glo™ I/II Assay Kit was purchased from Promega Corporation (Madison, Wis.), including the following components: HDAC-Glo I/II Buffer (25 mM Tris buffer, pH 8.0, supplemented with 137 mM: NaCl, 2.7 mM KCl, 1% v/v Triton X-100 and 1 mM: MgCl2), luminogenic substrates Boc-GAK(Ac)-aminoluciferin (HDAC-Glo I/II substrate), proprietary developer reagent (containing trypsin). Human recombinant Histone Deacetylase 8 (HDAC8) was purchased from Enzo Life Sciences (Plymouth Meeting, Pa.).
The HDAC8 reaction was performed at room temperature in white 384-well polystyrene, flat-bottom microtiter plate (Greiner Bio-one, Monroe, N.C.) in a final volume of 20 μL. Test compounds were first diluted serially in DMSO and 100 nL were transferred to the plate wells by Echo 550 (Labcyte, Sunnyvale, Calif.) before the addition of other reaction components. The final concentration of DMSO in the assay was 0.5%. The HDAC-Glo I/II assay reagent was prepared by rehydration of lyophilized HDAC-Glo I/II substrate in 10 mL. HDAC-Glo I/II assay buffer followed with the addition of 10 μL of developer reagent. 10 uL of 3 nM HDAC8 in the HDAC-Glo I/II assay buffer were first dispensed into the microliter plate containing the compounds and incubated at room temperature for 30 min. The reactions were initiated with the addition of 10 uL HDAC-Glo I/II assay reagent with Multidrop (Thermo, Waltham, Mass.). The final concentration of HDAC8 and HDAC-Glo I/II substrate in the reaction were 1.5 nM and 50 μM, respectively. The assay plate was mixed for 1 min by orbital shaking (500 rpm) and centrifuged for 1 min at 1500 rpm. After 15 min at room temperature, luminescence signals were measured on TopCount (Perkin Elmer). Wells with no compound served as the positive controls and wells containing no HDAC8 were used as negative controls. IC50 determination was performed by fitting the curve of percentage control activity versus the log of the compound concentration using the GraphPad Prism 6.0 software.

[1] abbreviates: class symbols, Table 14, read-out: HDAC8 IC50.

Read-outs that look alike come from different tables or passages of the source.

Human recombinant Histone Deacetylase 8 (HDAC8), sequence (Q9BY41 whole entry): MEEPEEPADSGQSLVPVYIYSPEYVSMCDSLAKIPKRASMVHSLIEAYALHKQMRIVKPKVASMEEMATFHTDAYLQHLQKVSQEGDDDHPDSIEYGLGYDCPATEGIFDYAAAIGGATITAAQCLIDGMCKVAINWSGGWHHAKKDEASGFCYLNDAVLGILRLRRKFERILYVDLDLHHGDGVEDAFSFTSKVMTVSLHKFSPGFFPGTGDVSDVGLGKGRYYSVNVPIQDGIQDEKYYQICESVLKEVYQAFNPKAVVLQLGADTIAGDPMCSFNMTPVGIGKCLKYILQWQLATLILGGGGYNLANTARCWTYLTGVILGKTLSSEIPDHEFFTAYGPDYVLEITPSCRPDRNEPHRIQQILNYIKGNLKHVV

Take `N#Cc1ccc(-c2cc3cnn(C(Cc4ccccc4)C(=O)NO)c3cn2)cc1` (stereo not drawn) [Compound I-0088, 2-(5-(4-cyanophenyl)-1H-pyrazolo[3,4-c]pyridin-1-yl)-N-hydroxy-3-phenylpropanamide]: the IC50 under setting [1] is greater than 500 nM.

With `O=C(NO)C(Cc1ccccc1)n1ncc2cc(-c3cncnc3)ncc21` (stereo not drawn) [Compound I-0092, N-hydroxy-3-phenyl-2-(5-(pyrimidin-5-yl)-1H-pyrazolo[3,4-c]pyridin-1-yl)propanamide], under setting [1], the IC50 is 200 to 500 nM.

As for `O=C(NO)C(Cc1ccccc1)n1ncc2cc(-c3ccncc3)ccc21` (stereo not drawn) [Compound I-0011, N-hydroxy-3-phenyl-2-(5-pyridin-4-yl-1H-indazol-1-yl)propanamide], the IC50 is 87 nM (HDAC8, read-out: IC50) and 50 to 200 nM under setting [1].

Turning to `O=C(NO)C(Cc1ccccc1)n1ncc2cc(-c3ccncc3)ncc21` (stereo not drawn) [Compound I-0097, N-hydroxy-3-phenyl-2-(5-(pyridin-4-yl)-1H-pyrazolo[3,4-c]pyridin-1-yl)propanamide], the IC50 under setting [1] was greater than 500 nM.

On to `O=C(NO)C(Cc1ccccc1)n1cc2ccc(N3CCCCC3)cc2n1` (stereo not drawn) [Compound I-0052, N-hydroxy-3-phenyl-2-(6-(piperidin-1-yl)-2H-indazol-2-yl)propanamide], for which, under setting [1], the 50% inhibitory concentration (IC50) was greater than 500 nM.

With `N#Cc1ccc(-c2ccc3c(cnn3C(Cc3ccccc3)C(=O)NO)c2)cc1` (stereo not drawn) [Compound I-0015, 2-(5-(4-cyanophenyl)-1H-indazol-1-yl)-N-hydroxy-3-phenylpropanamide], the 50% inhibitory concentration (IC50) under setting [1] was in the range of 200 to 500 nM.

With `O=C(NO)C(Cc1ccccc1)n1cc2cccc(C(=O)N3CCC4(CC3)COC4)c2n1` (stereo not drawn) [Compound I-0174, 2-(7-(2-oxa-7-azaspiro[3.5]nonane-7-carbonyl)-2H-indazol-2-yl)-N-hydroxy-3-phenylpropanamide], the IC50 under setting [1] is greater than 500 nM.

As for `COCc1ccc(-c2ccn3c(C(Cc4ccccc4)C(=O)NO)cnc3c2)cc1` (stereo not drawn) [Compound I-0150, N-hydroxy-2-(7-(4-(methoxymethyl)phenyl)imidazo[1,2-a]pyridin-3-yl)-3-phenylpropanamide], the 50% inhibitory concentration (IC50) under setting [1] was greater than 500 nM.

In the case of `O=C(NO)C(Cc1ccccc1)c1cnc2cc(-c3cccnc3)ccn12` (stereo not drawn) [Compound I-0114, N-hydroxy-3-phenyl-2-(7-(pyridin-3-yl)imidazo[1,2-a]pyridin-3-yl)propanamide], under setting [1], the half-maximal inhibitory concentration (IC50) fell in the range of 200 to 500 nM.

Consider `O=C(NO)C(Cc1ccccc1)n1ncc2cc(Cl)ccc21` (stereo not drawn) [Compound I-0001, 2-(5-Chloro-1H-indazol-1-yl)-N-hydroxy-3-phenylpropanamide], for which the IC50 (HDAC8, read-out: IC50) is 141 nM and the IC50 under setting [1] was in the range of 50 to 200 nM.

Consider `Cn1nccc1-c1ccc2c(C(Cc3ccccc3)C(=O)NO)nn(C)c2c1` (stereo not drawn) [Compound I-0203, N-hydroxy-2-(1-methyl-6-(1-methyl-1H-pyrazol-5-yl)-1H-indazol-3-yl)-3-phenylpropanamide], for which, under setting [1], the IC50 lay in the range of 50 to 200 nM.

As to `CN1CCC(c2ccc3cn(C(Cc4ccccc4)C(=O)NO)nc3c2)CC1` (stereo not drawn) [Compound I-0048, N-hydroxy-2-(6-(1-methylpiperidin-4-yl)-2H-indazol-2-yl)-3-phenylpropanamide], the IC50 under setting [1] was greater than 500 nM.

`O=C(NO)C(Cc1ccccc1)n1cc2ccnc(-c3cncnc3)c2n1` (stereo not drawn) [Compound I-0198, N-hydroxy-3-phenyl-2-(7-(pyrimidin-5-yl)-2H-pyrazolo[3,4-c]pyridin-2-yl)propanamide]: the IC50 under setting [1] was no more than 50 nM.

Regarding `O=C(NO)C(Cc1ccccc1)c1cnc2c(C3CC3)cccn12` (stereo not drawn) [Compound I-0170, 2-(8-cyclopropylimidazo[1,2-a]pyridin-3-yl)-N-hydroxy-3-phenylpropanamide], under setting [1], the 50% inhibitory concentration (IC50) is greater than 500 nM.

As for `COCc1ccc(-c2cccc3nn(C(Cc4ccccc4)C(=O)NO)cc23)cc1` (stereo not drawn) [Compound I-0147, N-hydroxy-2-(4-(4-(methoxymeth-yl)phenyl)-2H-indazol-2-yl)-3-phenylpropanamide], the IC50 under setting [1] fell in the range of 200 to 500 nM.

Regarding `O=C(NO)C(Cc1ccccc1)n1ncc2c(-c3ccccc3)cccc21` (stereo not drawn) [Compound I-0079, N-hydroxy-3-phenyl-2-(4-phenyl-1H-indazol-1-yl)propanamide], the IC50 under setting [1] is greater than 500 nM.

With `O=C(NO)C(Cc1ccccc1)n1nc2c(Cl)cccc2c1C#CC1CC1` (stereo not drawn) [Compound I-0136, 2-(7-chloro-3-(cyclopropylethynyl)-2H-indazol-2-yl)-N-hydroxy-3-phenylpropanamide], the IC50 under setting [1] is no more than 50 nM.

`Cc1cccc2cn(C(Cc3ccccc3)C(=O)NO)nc12` (stereo not drawn) [Compound I-0078, N-hydroxy-2-(7-methyl-2H-indazol-2-yl)-3-phenylpropanamide]: under setting [1], the 50% inhibitory concentration (IC50) was greater than 500 nM.

In the case of `O=C(NO)C(Cc1ccccc1)n1ncc2cc(Br)ccc21` (stereo not drawn) [Compound I-0017, 2-(5-bromo-1H-indazol-1-yl)-N-hydroxy-3-phenylpropanamide], the IC50 under setting [1] fell in the range of 50 to 200 nM.

Regarding `O=C(NO)C(Cc1ccccc1)n1nc2ccc(-c3ccccc3)cc2c1C#CC1CC1` (stereo not drawn) [Compound I-0025, 2-[3-(Cyclopropylethynyl)-5-phenyl-2H-indazol-2-yl]-hydroxy-3-phenylpropanamide], the half-maximal inhibitory concentration (IC50) is 134 nM (HDAC8, read-out: IC50) and 50 to 200 nM under setting [1].

Take `O=C(NO)C(Cc1ccccc1)n1nc2c(c1C#CC1CC1)CCCC2` (stereo not drawn) [Compound I-0206, 2-(3-(cyclopropylethynyl)-4,5,6,7-tetrahydro-2H-indazol-2-yl)-N-hydroxy-3-phenylpropanamide]: the IC50 under setting [1] is no more than 50 nM.

With `CNC(=O)c1cccc(-c2cccc3c(C#CC4CC4)n(C(Cc4ccccc4)C(=O)NO)nc23)c1` (stereo not drawn) [Compound I-0158, 3-(3-(cyclopropylethynyl)-2-(1-(hydroxyamino)-1-oxo-3-phenylpropan-2-yl)-2H-indazol-7-yl)-N-methylbenzamide], the IC50 under setting [1] is no more than 50 nM.

Regarding `O=C(NO)C(Cc1ccccc1)n1ncc2cc(C3CC3)ccc21` (stereo not drawn) [Compound I-0019, 2-(5-cyclopropyl-1H-indazol-1-yl)-N-hydroxy-3-phenylpropanamide], the half-maximal inhibitory concentration (IC50) under setting [1] is greater than 500 nM.

With `O=C(NCC1CCOCC1)c1cccc2cn(C(Cc3ccccc3)C(=O)NO)nc12` (stereo not drawn) [Compound I-0177, 2-(1-(hydroxyamino)-1-oxo-3-phenylpropan-2-yl)-N-((tetrahydro-2H-pyran-4-yl)methyl)-2H-indazole-7-carboxamide], under setting [1], the IC50 was no more than 50 nM.

For `Cc1cccc2c(C#CC3CC3)n(C(Cc3ccccc3)C(=O)NO)nc12` (stereo not drawn) [Compound I-0161, 2-(3-(cyclopropylethynyl)-7-methyl-2H-indazol-2-yl)-N-hydroxy-3-phenylpropanamide], the IC50 under setting [1] was no more than 50 nM.

Regarding `O=C(NO)C(Cc1ccccc1)n1ncc2c(-c3ccncc3)nccc21` (stereo not drawn) [Compound I-0070, N-hydroxy-3-phenyl-2-(4-(pyridin-4-yl)-1H-pyrazolo[4,3-c]pyridin-1-yl)propanamide], the IC50 under setting [1] lay in the range of 50 to 200 nM.

On to `O=C(NO)C(Cc1ccccc1)n1cc2cccc(CN3CCC4(CCOCC4)CC3)c2n1` (stereo not drawn) [Compound I-0187, 2-(7-(3-oxa-9-azaspiro[5.5]undecan-9-ylmethyl)-2H-indazol-2-yl)-N-hydroxy-3-phenylpropanamide], for which the 50% inhibitory concentration (IC50) under setting [1] was greater than 500 nM.

Consider `Cc1cccc2c1cnn2C(Cc1ccccc1)C(=O)NO` (stereo not drawn) [Compound I-0084, N-hydroxy-2-(4-methyl-1H-indazol-1-yl)-3-phenylpropanamide], for which the IC50 under setting [1] was greater than 500 nM.

On to `O=C(NO)C(Cc1ccccc1)n1cc2cccc(CNC3CC3)c2n1` (stereo not drawn) [Compound I-0180, 2-{7-[(Cyclopropylamino)methyl]-2H-indazol-2-yl}-N-hydroxy-3-phenylpropanamide], for which the concentration for half-maximal inhibition (IC50) by setting is: (HDAC8, read-out: IC50) 469 nM; under setting [1], 200 to 500 nM.

Broadly, the IC50 is the concentration that gives 50% inhibition.

Source of the values: patent publication US10723705B2, “Heterocyclic compounds and uses thereof” (Incyte Corporation, priority 2015, dated 2020).
